≈ marks a conversion by molar mass, not a printed value.
Tests used:
Test in all cases: ≥ marks a high value that may be exact or a test limit, other limits are often not marked, values filed in µg/mL are converted to µM
[1] = system: Streptococcus mutans
[2] = system: Staphylococcus epidermidis ATCC 12228
[3] = system: Staphylococcus aureus ATCC 6538
[4] = system: Micrococcus luteus ATCC 4698
[5] = system: Escherichia coli DH5alpha
[6] = system: Streptococcus uberis
[7] = system: Staphylococcus aureus
[8] = system: Pasteurella multocida
[9] = system: Leuconostoc lactis
[10] = system: Micrococcus luteus
[11] = system: Escherichia coli
[12] = system: Bacillus cereus
[13] = system: Staphylococcus epidermidis
[14] = system: Listeria innocua
[15] = system: Escherichia coli UB1005
[16] = system: Acinetobacter baumannii
[17] = system: Staphylococcus aureus ATCC 29213
[18] = system: Escherichia coli ATCC 25922
[19] = system: Pseudomonas aeruginosa
[20] = system: Salmonella enterica subsp. enterica serovar Typhimurium C77-31
[21] = system: Staphylococcus aureus ATCC 25923

MIC [1] [µM]	MIC [2] [µM]	MIC [6] [µM]	MIC [7] [µM]	MIC [8] [µM]	MIC [9] [µM]	MIC [11] [µM]	MIC [12] [µM]	MIC [13] [µM]	MIC [14] [µM]	Structure (SMILES)	further results
15.8 (≈ 24 µg/mL)	–	–	–	–	–	–	–	–	–	CC(C)C[C@H](NC(=O)[C@H](Cc1c[nH]c2ccccc12)NC(=O)[C@H](CCCCN)NC(=O)[C@H](CC(C)C)NC(=O)[C@H](Cc1ccccc1)NC(=O)[C@@H](NC(=O)[C@H](CCCCN)NC(=O)[C@@H](N)Cc1ccccc1)[C@@H](C)O)C(=O)N[C@@H](Cc1cnc[nH]1)C(=O)N[C@@H](CCCN=C(N)N)C(=O)N[C@@H](Cc1ccccc1)C(N)=O [FKTFLKWLHRF]	–
–	12.8 (≈ 18 µg/mL)	–	–	–	–	–	–	–	–	CC(C)C[C@H](NC(=O)[C@H](C)NC(=O)CNC(=O)[C@H](CC(C)C)NC(=O)[C@@H](N)Cc1ccccc1)C(=O)N[C@@H](Cc1ccccc1)C(=O)N[C@@H](CCCCN)C(=O)N[C@@H](C)C(=O)N[C@@H](CC(C)C)C(=O)N[C@@H](CO)C(=O)N[C@@H](CCCCN)C(=O)N[C@@H](CC(C)C)C(=O)N[C@H](C(=O)O)C(C)C [FLGALFKALSKLV]	MIC [3]: 7.82 µM (≈ 11 µg/mL); MIC [4]: 4.27 µM (≈ 6 µg/mL); MIC [5]: ≥ 35.5 µM
–	15.6 (≈ 22 µg/mL)	–	–	–	–	–	–	–	–	CC(C)C[C@H](NC(=O)[C@H](CC(C)C)NC(=O)[C@H](CCCCN)NC(=O)[C@H](CO)NC(=O)[C@H](CC(C)C)NC(=O)[C@H](C)NC(=O)[C@H](CCCCN)NC(=O)[C@H](Cc1ccccc1)NC(=O)[C@H](CC(C)C)NC(=O)[C@H](C)NC(=O)CNC(=O)[C@@H](NC(=O)[C@@H](N)Cc1ccccc1)C(C)C)C(=O)O [FVGALFKALSKLL]	MIC [3]: 8.53 µM (≈ 12 µg/mL); MIC [4]: 4.27 µM (≈ 6 µg/mL); MIC [5]: ≥ 35.5 µM
–	–	27.6 (≈ 50 µg/mL)	27.6 (≈ 50 µg/mL)	≥ 55.2	3.31 (≈ 6 µg/mL)	55.2 (≈ 99.9 µg/mL)	27.6 (≈ 50 µg/mL)	6.62 (≈ 12 µg/mL)	13.8 (≈ 25 µg/mL)	CC[C@H](C)[C@H](NC(=O)[C@@H](NC(=O)[C@H](CCCCN)NC(=O)[C@H](C)NC(=O)[C@@H](NC(=O)[C@H](CCCCN)NC(=O)[C@H](CCCCN)NC(=O)[C@@H](NC(=O)[C@@H](NC(=O)[C@H](CCCCN)NC(=O)[C@H](Cc1ccccc1)NC(=O)[C@H](CC(C)C)NC(=O)CN)C(C)C)[C@@H](C)CC)C(C)C)C(C)C)C(=O)N[C@@H](CCCCN)C(=O)N[C@@H](CCCCN)C(=O)N[C@@H](CC(C)C)C(N)=O [GLFKVIKKVAKVIKKL]	MIC [10]: 13.8 µM (≈ 25 µg/mL)
–	–	≥ 39.5	> 39.5	≥ 39.5	9.87 (≈ 25 µg/mL)	> 39.5	≥ 39.5	≥ 39.5	≥ 39.5	CC[C@H](C)[C@H](NC(=O)[C@@H](NC(=O)[C@H](C)NC(=O)[C@@H](NC(=O)[C@@H](NC(=O)[C@H](Cc1cnc[nH]1)NC(=O)[C@H](C)NC(=O)[C@H](CC(C)C)NC(=O)[C@@H](NC(=O)[C@H](Cc1cnc[nH]1)NC(=O)[C@H](CCCCN)NC(=O)[C@H](C)NC(=O)[C@@H](NC(=O)[C@H](CO)NC(=O)CNC(=O)[C@H](CC(C)C)NC(=O)[C@@H](NC(=O)[C@H](CO)NC(=O)[C@H](CC(C)C)NC(=O)[C@H](CC(C)C)NC(=O)CN)C(C)C)C(C)C)C(C)C)C(C)C)C(C)C)C(C)C)C(=O)N[C@@H](C)C(=O)N[C@@H](CCC(=O)O)C(=O)N[C@@H](Cc1cnc[nH]1)C(=O)N[C@@H](CC(C)C)C(N)=O [GLLSVLGSVAKHVLAHVVAVIAEHL]	MIC [10]: ≥ 39.5 µM
–	–	7.02 (≈ 12.5 µg/mL)	28.1 (≈ 50 µg/mL)	≥ 56.1	1.68 (≈ 3 µg/mL)	> 56.1	14 (≈ 25 µg/mL)	7.02 (≈ 12.5 µg/mL)	14 (≈ 25 µg/mL)	CC[C@H](C)[C@H](NC(=O)[C@H](CC(C)C)NC(=O)[C@H](CC(=O)O)NC(=O)CNC(=O)[C@@H](NC(=O)CN)C(C)C)C(=O)N[C@@H](CCCN=C(N)N)C(=O)N[C@@H](CCCCN)C(=O)N[C@@H](C)C(=O)N[C@H](C(=O)N[C@@H](CO)C(=O)N[C@H](C(=O)N[C@H](C(=O)N[C@@H](CCCCN)C(=O)N[C@@H](CC(N)=O)C(=O)N[C@H](C(=O)N[C@H](C(N)=O)C(C)C)[C@@H](C)CC)[C@@H](C)CC)C(C)C)C(C)C [GVGDLIRKAVSVIKNIV]	–
–	–	28.2 (≈ 50 µg/mL)	> 56.5	≥ 56.5	6.78 (≈ 12 µg/mL)	> 56.5	≥ 56.5	≥ 56.5	≥ 56.5	CC[C@H](C)[C@H](NC(=O)[C@@H](NC(=O)CN)C(C)C)C(=O)N[C@@H](CC(=O)O)C(=O)N[C@@H](C)C(=O)N[C@@H](C)C(=O)N[C@@H](CCCCN)C(=O)N[C@@H](CCCCN)C(=O)N[C@H](C(=O)N[C@H](C(=O)N[C@@H](CC(N)=O)C(=O)N[C@H](C(=O)N[C@@H](CC(C)C)C(=O)N[C@@H](C)C(=O)N[C@@H](CC(N)=O)C(=O)N[C@@H](CC(C)C)C(=O)N[C@@H](Cc1ccccc1)C(N)=O)C(C)C)C(C)C)C(C)C [GVIDAAKKVVNVLANLF]	MIC [10]: ≥ 56.5 µM
16.4 (≈ 24 µg/mL)	–	–	–	–	–	–	–	–	–	CC[C@H](C)[C@H](NC(=O)[C@H](Cc1ccccc1)NC(=O)[C@H](CCCCN)NC(=O)[C@@H](NC(=O)[C@H](Cc1ccccc1)NC(=O)[C@H](CCC(N)=O)NC(=O)[C@H](CCCCN)NC(=O)[C@@H](N)CC(C)C)C(C)C)C(=O)N[C@@H](Cc1cnc[nH]1)C(=O)N[C@@H](CCCN=C(N)N)C(=O)N[C@@H](Cc1ccccc1)C(N)=O [LKQFVKFIHRF]	–
≥ 91.8	–	–	–	–	–	–	–	–	–	CC[C@H](C)[C@H](NC(=O)[C@H](CCCN=C(N)N)NC(=O)[C@H](CCCCN)NC(=O)[C@H](CC(C)C)NC(=O)[C@H](C)NC(=O)[C@@H](N)CCCN=C(N)N)C(=O)N[C@@H](CCCCN)C(=O)N[C@@H](Cc1cnc[nH]1)C(=O)N[C@H](C(=O)N[C@@H](CC(C)C)C(=O)N[C@@H](CCCCN)C(=O)O)C(C)C [RALKRIKHVLK]	–
–	2 (≈ 3.37 µg/mL)	–	2 (≈ 3.37 µg/mL)	–	–	2 (≈ 3.37 µg/mL)	–	–	–	CC(C)C[C@H](NC(=O)[C@H](CCCCN)NC(=O)[C@H](Cc1c[nH]c2ccccc12)NC(=O)[C@H](CCCCN)NC(=O)[C@H](CC(C)C)NC(=O)[C@H](CCCCN)NC(=O)[C@H](Cc1c[nH]c2ccccc12)NC(=O)[C@H](CCCCN)NC(=O)[C@H](CC(C)C)NC(=O)[C@H](CCCCN)NC(=O)[C@@H](N)Cc1c[nH]c2ccccc12)C(=O)N[C@@H](CCCCN)C(N)=O [WKLKWKLKWKLK]	MIC [15]: 4 µM (≈ 6.74 µg/mL); MIC [16]: 2.83 µM (≈ 4.76 µg/mL); MIC [17]: 2 µM (≈ 3.37 µg/mL); MIC [18]: 4 µM (≈ 6.74 µg/mL); MIC [19]: 4 µM (≈ 6.74 µg/mL); MIC [20]: 2 µM (≈ 3.37 µg/mL); MIC [21]: 2 µM (≈ 3.37 µg/mL)
–	4 (≈ 7.14 µg/mL)	–	2 (≈ 3.57 µg/mL)	–	–	2.83 (≈ 5.05 µg/mL)	–	–	–	CC(C)C[C@H](NC(=O)[C@H](CCCN=C(N)N)NC(=O)[C@H](Cc1c[nH]c2ccccc12)NC(=O)[C@H](CCCN=C(N)N)NC(=O)[C@@H](NC(=O)[C@H](CCCCN)NC(=O)[C@H](Cc1c[nH]c2ccccc12)NC(=O)[C@H](CCCN=C(N)N)NC(=O)[C@H](CC(C)C)NC(=O)[C@H](CCCN=C(N)N)NC(=O)[C@@H](N)Cc1c[nH]c2ccccc12)[C@@H](C)O)C(=O)N[C@@H](CCCCN)C(N)=O [WRLRWKTRWRLK]	MIC [15]: 2 µM (≈ 3.57 µg/mL); MIC [16]: 4 µM (≈ 7.14 µg/mL); MIC [19]: 8 µM (≈ 14.3 µg/mL); MIC [20]: 2 µM (≈ 3.57 µg/mL); MIC [21]: 2 µM (≈ 3.57 µg/mL)
–	2 (≈ 3.7 µg/mL)	–	1 (≈ 1.85 µg/mL)	–	–	2 (≈ 3.7 µg/mL)	–	–	–	CC(C)C[C@H](NC(=O)[C@H](CCCN=C(N)N)NC(=O)[C@H](Cc1c[nH]c2ccccc12)NC(=O)[C@H](CCCN=C(N)N)NC(=O)[C@H](CC(C)C)NC(=O)[C@H](CCCN=C(N)N)NC(=O)[C@H](Cc1c[nH]c2ccccc12)NC(=O)[C@H](CCCN=C(N)N)NC(=O)[C@H](CC(C)C)NC(=O)[C@H](CCCN=C(N)N)NC(=O)[C@@H](N)Cc1c[nH]c2ccccc12)C(=O)N[C@@H](CCCN=C(N)N)C(N)=O [WRLRWRLRWRLR]	MIC [15]: 2 µM (≈ 3.7 µg/mL); MIC [16]: 2.83 µM (≈ 5.24 µg/mL); MIC [17]: 1 µM (≈ 1.85 µg/mL); MIC [18]: 4 µM (≈ 7.41 µg/mL); MIC [19]: 4 µM (≈ 7.41 µg/mL); MIC [20]: 2 µM (≈ 3.7 µg/mL); MIC [21]: 2 µM (≈ 3.7 µg/mL)
≥ 86.9	–	–	–	–	–	–	–	–	–	CC(C)C[C@H](NC(=O)[C@H](Cc1cnc[nH]1)NC(=O)[C@H](CCC(N)=O)NC(=O)[C@H](Cc1ccccc1)NC(=O)[C@H](CCC(=O)O)NC(=O)[C@@H](NC(=O)[C@H](CC(C)C)NC(=O)[C@H](CC(C)C)NC(=O)[C@@H](N)Cc1ccc(O)cc1)[C@@H](C)O)C(=O)N[C@@H](Cc1ccccc1)C(=O)N[C@@H](CCCCN)C(=O)O [YLLTEFQHLFK]	–

Source: DBAASP
